From patent US9676760B2, “Fused heterocyclic compounds as ion channel modulators” (Gilead Sciences, Inc., priority 2011, dated 2017)

Molecular target: wild-type human cardiac sodium channel, hNav1.5 (Homo sapiens, UniProt Q14524)
Assay: Late INa screening assay (QPatch whole cell patch clamp, HEK293)
Assay type: cell-based
Conditions: compound at 1 μM, 10 μM Tefluthrin; for inhibition at 1 µM: HEK293, percent block of late INa, read-out: Late INa 1 μM
Description: The late sodium current (Late INa) and peak sodium current (Peak INa) assays are performed on an automated electrophysiology platform, QPatch 16× (Sophion Bioscience, Copenhagen, Denmark), which uses the whole cell patch clamp technique to measure currents through the cell membrane of up to 16 cells at a time. The assay uses an HEK293 (human embryonic kidney) cell line heterologously expressing the wild-type human cardiac sodium channel, hNav1.5, purchased from Millipore (Billerica, Mass.). No beta subunits were coexpressed with the Na channel alpha subunit. Cells are maintained with standard tissue culture procedures and stable channel expression is maintained with 400 μg/mL Geneticin in the culture medium. Cells isolated for use on QPatch are incubated for 5 minutes in Detachin 1×(Genlantis, San Diego, USA) at 37° C. to ensure that 80-90% of the cells are single and not part of a cell cluster. Experiments are carried out at 23-25° C.
For both the Late INa and Peak INa assays, series resistance compensation is set to 100% and series resistance and whole-cell compensation are performed automatically. Currents are digitized at 25 kHz and low-pass filtered at 12 kHz and 10 kHz for the late and peak INa assays, respectively. Currents through open sodium channels are automatically recorded and stored in the Sophion Bioscience Oracle database (Sophion Bioscience, Copenhagen, Denmark). Analysis is performed using QPatch Assay and database software and data are compiled in Excel.
Compound stocks are routinely made by the Gilead Sample Bank in plastic vials to 10 mM in dimethyl sulfoxide (DMSO). In some cases, when compounds are not soluble in DMSO, they are made in 100% ethanol. Stocks are sonicated as necessary. The extracellular solution for screening Late INa is composed of: 140 mM NaCl, 4 mM KCl, 1.8 mM CaCl2, 0.75 mM MgCl2 and 5 mM HEPES with pH adjusted to 7.4 using NaOH. The intracellular solution used to perfuse the inside of the cells for both the Late INa and Peak INa assays contains: 120 mM CsF, 20 mM CsCl, 5 mM EGTA, 5 mM HEPES and pH adjusted to 7.4 with CsOH. Compounds are diluted in extracellular solution to 1 μM in glass vials and then transferred to glass well plates before robotic addition to the cells. The 0 mM Na extracellular solution (0Na-ECF) used at the end of each experiment for the Late INa and Peak INa assays to measure baseline current contains: 140 mM N-methyl-D-glucamine; 4 mM KCl; 1.8 mM CaCl2; 0.75 mM MgCl2; 5 mM HEPES and pH was adjusted to 7.4 with HCl.
For the Late INa assay, sodium channels are activated every 10 seconds (0.1 Hz) by depolarizing the cell membrane to −20 mV for 250 milliseconds (ms) from a holding potential of −120 mV. In response to a −20 mV voltage step, typical hNav1.5 sodium currents activate rapidly to a peak negative current and then inactivate nearly completely within 3-4 ms.
Compounds were tested to determine their activity in blocking the late sodium current. Late INa was generated by adding 10 μM Tefluthrin (pyrethroid) to the extracellular solution while recording Na currents. […] ATX-II and tefluthrin occupy distinct, non-overlapping binding sites and modify Na^+ channel function differently to increase late INa. […] After establishing the whole cell recording configuration, late INa activator is added to each well 4 times over a 16-17 minute period so that the late component of the Na current reaches a stable value.
Results are reported as percent block of late INa.

Chain of wild-type human cardiac sodium channel, hNav1.5 (Q14524 whole entry): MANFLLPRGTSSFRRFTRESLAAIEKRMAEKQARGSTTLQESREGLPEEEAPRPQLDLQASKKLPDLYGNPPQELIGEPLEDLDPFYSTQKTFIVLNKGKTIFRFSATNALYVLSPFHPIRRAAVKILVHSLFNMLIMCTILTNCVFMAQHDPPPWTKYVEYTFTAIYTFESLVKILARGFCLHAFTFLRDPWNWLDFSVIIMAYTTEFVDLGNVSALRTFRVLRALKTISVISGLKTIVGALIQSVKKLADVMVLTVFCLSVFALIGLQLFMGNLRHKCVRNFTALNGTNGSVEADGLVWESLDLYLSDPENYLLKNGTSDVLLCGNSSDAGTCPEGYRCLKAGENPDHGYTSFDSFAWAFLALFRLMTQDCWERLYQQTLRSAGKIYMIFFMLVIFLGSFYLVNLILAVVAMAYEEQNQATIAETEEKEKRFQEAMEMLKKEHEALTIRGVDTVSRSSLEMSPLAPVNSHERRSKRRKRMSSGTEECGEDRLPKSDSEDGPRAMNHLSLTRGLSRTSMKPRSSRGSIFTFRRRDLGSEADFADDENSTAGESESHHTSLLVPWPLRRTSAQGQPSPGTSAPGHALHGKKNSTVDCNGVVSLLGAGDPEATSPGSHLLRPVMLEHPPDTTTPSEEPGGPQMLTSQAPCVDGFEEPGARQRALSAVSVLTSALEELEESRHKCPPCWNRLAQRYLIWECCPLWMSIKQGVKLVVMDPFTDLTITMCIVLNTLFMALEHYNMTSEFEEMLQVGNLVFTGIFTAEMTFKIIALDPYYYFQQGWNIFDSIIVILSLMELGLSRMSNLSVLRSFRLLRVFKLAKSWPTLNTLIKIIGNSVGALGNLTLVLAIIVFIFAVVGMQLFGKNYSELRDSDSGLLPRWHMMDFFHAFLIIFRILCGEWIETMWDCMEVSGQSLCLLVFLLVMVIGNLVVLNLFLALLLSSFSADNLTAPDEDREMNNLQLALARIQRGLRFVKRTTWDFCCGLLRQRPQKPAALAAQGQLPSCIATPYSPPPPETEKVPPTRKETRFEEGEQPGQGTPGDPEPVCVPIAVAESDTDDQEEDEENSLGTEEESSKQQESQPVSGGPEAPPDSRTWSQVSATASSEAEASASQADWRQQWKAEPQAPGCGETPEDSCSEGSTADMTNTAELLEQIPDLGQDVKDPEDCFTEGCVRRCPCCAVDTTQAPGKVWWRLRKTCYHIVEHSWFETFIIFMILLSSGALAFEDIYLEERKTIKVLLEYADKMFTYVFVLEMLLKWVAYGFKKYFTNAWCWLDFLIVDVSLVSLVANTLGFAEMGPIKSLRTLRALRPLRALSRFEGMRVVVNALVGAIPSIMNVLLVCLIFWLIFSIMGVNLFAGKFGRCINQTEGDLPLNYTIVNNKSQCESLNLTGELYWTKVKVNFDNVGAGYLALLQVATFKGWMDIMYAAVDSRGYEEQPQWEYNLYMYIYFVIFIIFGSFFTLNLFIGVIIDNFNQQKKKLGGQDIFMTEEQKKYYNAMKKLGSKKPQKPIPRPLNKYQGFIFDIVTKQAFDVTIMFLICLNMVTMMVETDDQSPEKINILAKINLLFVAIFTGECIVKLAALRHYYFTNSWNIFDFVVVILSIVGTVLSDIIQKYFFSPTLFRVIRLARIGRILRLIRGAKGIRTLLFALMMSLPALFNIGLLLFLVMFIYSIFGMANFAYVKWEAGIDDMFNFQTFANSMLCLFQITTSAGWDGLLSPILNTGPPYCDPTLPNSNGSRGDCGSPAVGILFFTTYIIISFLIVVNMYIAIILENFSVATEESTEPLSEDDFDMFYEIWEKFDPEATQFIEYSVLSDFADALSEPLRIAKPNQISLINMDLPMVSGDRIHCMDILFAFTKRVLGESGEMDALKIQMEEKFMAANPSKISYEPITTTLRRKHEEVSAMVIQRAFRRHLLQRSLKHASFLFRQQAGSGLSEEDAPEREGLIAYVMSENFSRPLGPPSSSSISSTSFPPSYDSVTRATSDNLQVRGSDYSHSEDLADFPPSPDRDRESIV

`O=C1c2cc(-c3ccc(OC(F)(F)F)cc3)ccc2OCCN1Cc1ccncc1` [II-67, 4-(pyridin-4-ylmethyl)-7-(4-(trifluoromethoxy)phenyl)-3,4-dihydrobenzo[f][1,4]oxazepin-5(2H)-one] showed an inhibition at 1 µM of 22%.
`O=C1c2cc(-c3ccc(OC(F)(F)F)cc3)ccc2OCCN1Cc1nnc(C2CC2)o1` [II-68, 4-((5-cyclopropyl-1,3,4-oxadiazol-2-yl)methyl)-7-(4-(trifluoromethoxy)phenyl)-3,4-dihydrobenzo[f][1,4]oxazepin-5(2H)-one] gave an inhibition at 1 µM of 17%.
Molecule `O=C1c2cc(-c3ccc(OC(F)(F)F)cc3)ccc2OCCN1CCOc1ncccn1` [II-69, 4-(2-(pyrimidin-2-yloxy)ethyl)-7-(4-(trifluoromethoxy)phenyl)-3,4-dihydrobenzo[f][1,4]oxazepin-5(2H)-one] has an inhibition at 1 µM of 33%.
In the case of `O=C1c2cc(-c3ccc(OC(F)(F)F)cc3)ccc2OCCN1Cc1cccnc1` [II-70, 4-(pyridin-3-ylmethyl)-7-(4-(trifluoromethoxy)phenyl)-3,4-dihydrobenzo[f][1,4]oxazepin-5(2H)-one], the inhibition at 1 µM is reported as 37%.
With `O=C1c2cc(-c3ccc(OC(F)(F)F)cc3)ccc2OCCN1CCO` [II-71, 4-(2-hydroxyethyl)-7-(4-(trifluoromethoxy)phenyl)-3,4-dihydrobenzo[f][1,4]oxazepin-5(2H)-one] the inhibition at 1 µM was 12%.
Molecule `O=C1NCCOc2ccc(-c3ccc(OC(F)(F)F)cc3)cc21` [II-74, 7-(4-(trifluoromethoxy)phenyl)-3,4-dihydrobenzo[f][1,4]oxazepin-5(2H)-one] has an inhibition at 1 µM of 12%.
In the case of `CC(C)[C@H]1COc2ccc(-c3ccc(C(F)(F)F)cc3)cc2C(=O)N1` [II-77, (S)-3-isopropyl-7-(4-(trifluoromethyl)phenyl)-3,4-dihydrobenzo[f][1,4]oxazepin-5(2H)-one], the inhibition at 1 µM is reported as 21%.
In the case of `Cc1ccc(-c2ccc3c(c2)C(=O)N(Cc2ncccn2)CCO3)cc1` [II-87, 4-(pyrimidin-2-ylmethyl)-7-p-tolyl-3,4-dihydrobenzo[f][1,4]oxazepin-5(2H)-one], the inhibition at 1 µM is reported as 22%.
`CC(C)c1ccc(-c2ccc3c(c2)C(=O)N(Cc2ncccn2)CCO3)cc1` [II-89, 7-(4-isopropylphenyl)-4-(pyrimidin-2-ylmethyl)-3,4-dihydrobenzo[f][1,4]oxazepin-5(2H)-one] was tested, and the inhibition at 1 µM was 28%.
Molecule `O=C1c2cc(-c3ccc(C4CC4)cc3)ccc2OCCN1Cc1ncccn1` [II-92, 7-(4-cyclopropylphenyl)-4-(pyrimidin-2-ylmethyl)-3,4-dihydrobenzo[f][1,4]oxazepin-5 (2H)-one] has an inhibition at 1 µM of 34%.
`C[C@H](c1ncccn1)N1CCOc2ccc(-c3ccc(C(F)(F)F)cc3)cc2C1=O` [II-95, (R)-4-(1-(pyrimidin-2-yl)ethyl)-7-(4-(trifluoromethyl)phenyl)-3,4-dihydrobenzo[f][1,4]oxazepin-5(2H)-one] gave an inhibition at 1 µM of 19%.
`CC(C)COc1ccc(-c2ccc3c(c2)C(=O)N(Cc2ncccn2)CCO3)cc1` [II-97, 7-(4-isobutoxyphenyl)-4-(pyrimidin-2-ylmethyl)-3,4-dihydrobenzo[f][1,4]oxazepin-5 (2H)-one] showed an inhibition at 1 µM of 36%.
Work on `O=C1c2cc(-c3ccc(OC4CC4)cc3)ccc2OCCN1Cc1ncccn1` [II-102, 7-(4-cyclopropoxyphenyl)-4-(pyrimidin-2-ylmethyl)-3,4-dihydrobenzo[f][1,4]oxazepin-5(2H)-one] yielded an inhibition at 1 µM of 21%.
Work on `O=C1c2cc(-c3ccc(F)cc3)ccc2OCCN1Cc1ncccn1` [II-104, 7-(4-fluorophenyl)-4-(pyrimidin-2-ylmethyl)-3,4-dihydrobenzo[f][1,4]oxazepin-5(2H)-one] yielded an inhibition at 1 µM of 21%.
With `O=C1c2cc(-c3ccc(OCC(F)(F)F)c(F)c3)ccc2OCCN1Cc1ncccn1` [II-106, 7-(3-fluoro-4-(2,2,2-trifluoroethoxy)phenyl)-4-(pyrimidin-2-ylmethyl)-3,4-dihydrobenzo[f][1,4]oxazepin-5(2H)-one] the inhibition at 1 µM was 18%.
`O=C1c2cc(-c3ccc(OCC(F)(F)F)cc3)ccc2OCCN1Cc1ncccn1` [II-107, 4-(pyrimidin-2-ylmethyl)-7-(4-(2,2,2-trifluoroethoxy)phenyl)-3,4-dihydrobenzo[f][1,4]oxazepin-5(2H)-one] gave an inhibition at 1 µM of 18%.
Molecule `O=C1c2cc(-c3ccc(OC(F)(F)F)cc3)ccc2OCCN1Cc1nccc(C(F)(F)F)n1` [II-113, 7-(4-(trifluoromethoxy)phenyl)-4-((4-(trifluoromethyl)pyrimidin-2-yl)methyl)-3,4-dihydrobenzo[f][1,4]oxazepin-5(2H)-one] has an inhibition at 1 µM of 27%.
`O=C1c2cc(-c3ccc(OC(F)(F)F)cc3)ccc2OCCN1Cc1ncc(-c2ccc(C(F)(F)F)nc2)cn1` [II-115, 7-(4-(trifluoromethoxy)phenyl)-4-((5-(6-(trifluoromethyl)pyridin-3-yl)pyrimidin-2-yl)methyl)-3,4-dihydrobenzo[f][1,4]oxazepin-5(2H)-one] showed an inhibition at 1 µM of 21%.
`N#CC1(c2ccc(-c3ccc4c(c3)C(=O)N(Cc3ncccn3)CCO4)cc2)CCCC1` [II-122, 1-(4-(5-oxo-4-(pyrimidin-2-ylmethyl)-2,3,4,5-tetrahydrobenzo[f][1,4]oxazepin-7-yl)phenyl)cyclopentanecarbonitrile] showed an inhibition at 1 µM of 19%.
In the case of `CCOc1ccc(-c2ccc3c(c2)C(=O)N(Cc2ncccn2)CCO3)cc1` [II-123, 7-(4-ethoxyphenyl)-4-(pyrimidin-2-ylmethyl)-3,4-dihydrobenzo[f][1,4]oxazepin-5(2H)-one], the inhibition at 1 µM is reported as 21%.
`O=C1c2cc(-c3ccc(C(F)F)cc3)ccc2OCCN1Cc1ncccn1` [II-124, 7-(4-(difluoromethyl)phenyl)-4-(pyrimidin-2-ylmethyl)-3,4-dihydrobenzo[f][1,4]oxazepin-5(2H)-one] gave an inhibition at 1 µM of 17%.
For `O=C1c2cc(-c3ccc(OC(F)(F)F)cc3)ccc2OCCN1Cc1nccc(N2CCOCC2)n1` [II-133], the inhibition at 1 µM was 23%.
`O=C1c2cc(-c3ccc(C(F)(F)F)cc3)ccc2OCCN1Cc1cn2ccccc2n1` [II-135, 4-(imidazo[1,2-a]pyridin-2-ylmethyl)-7-(4-(trifluoromethyl)phenyl)-3,4-dihydrobenzo[f][1,4]oxazepin-5(2H)-one] was tested, and the “Late INa 1 μM” value (percent block of late INa) was 32%.
`O=C1c2cc(-c3ccc(C(F)(F)F)c(F)c3)ccc2OCCN1Cc1ncccn1` [II-136, 7-(3-fluoro-4-(trifluoromethyl)phenyl)-4-(pyrimidin-2-ylmethyl)-3,4-dihydrobenzo[f][1,4]oxazepin-5(2H)-one] showed an inhibition at 1 µM of 30%.
With `O=C1c2cc(-c3ccc(OC(F)(F)F)cc3)ccc2OCCN1Cc1nccc(N2CCCCC2)n1` [II-139, 4-((4-(piperidin-1-yl)pyrimidin-2-yl)methyl)-7-(4-(trifluoromethoxy)phenyl)-3,4-dihydrobenzo[f][1,4]oxazepin-5(2H)-one] the inhibition at 1 µM was 31%.
`CN(C)c1ccnc(CN2CCOc3ccc(-c4ccc(OC(F)(F)F)cc4)cc3C2=O)n1` [II-140, 4-((4-(dimethylamino)pyrimidin-2-yl)methyl)-7-(4-(trifluoromethoxy)phenyl)-3,4-dihydrobenzo[f][1,4]oxazepin-5(2H)-one] gave an inhibition at 1 µM of 32%.
Molecule `O=C1NC(Cc2ccccn2)COc2ccc(-c3ccc(OC(F)(F)F)cc3)cc21` (centres unmarked) [II-142, 3-(pyridin-2-ylmethyl)-7-(4-(trifluoromethoxy)phenyl)-3,4-dihydrobenzo[f][1,4]oxazepin-5(2H)-one] has an inhibition at 1 µM of 19%.
For `Cc1cc(C(F)(F)F)ccc1-c1ccc2c(c1)C(=O)N(Cc1ncccn1)CCO2` [II-145, 7-(2-methyl-4-(trifluoromethyl)phenyl)-4-(pyrimidin-2-ylmethyl)-3,4-dihydrobenzo[f][1,4]oxazepin-5(2H)-one], the inhibition at 1 µM was 19%.
`Cc1cc(OC(F)(F)F)ccc1-c1ccc2c(c1)C(=O)N(Cc1ncccn1)CCO2` [II-146, 7-(2-methyl-4-(trifluoromethoxy)phenyl)-4-(pyrimidin-2-ylmethyl)-3,4-dihydrobenzo[f][1,4]oxazepin-5(2H)-one] gave an inhibition at 1 µM of 36%.
